Measured values reported in patent US8227620B2, “Pharmaceutical compounds” (Neuroscienze Pharmaness S.C. A.R.L., priority 2004, dated 2012).

How the values were obtained:
CB2 receptors = target: T1, CB2 receptors (Rattus norvegicus, UniProt Q9QZN9); assay: Radioreceptor binding, [3H]-CP-55,940 displacement, rat spleen membranes; conditions: 1 nM [3H]-CP55,940
T1 construct: the brain in toto (cerebellum excluded) and the spleen were rapidely dissected; from tissue; host or cells: rat spleen membranes
T1 sequence (Q9QZN9 1-360): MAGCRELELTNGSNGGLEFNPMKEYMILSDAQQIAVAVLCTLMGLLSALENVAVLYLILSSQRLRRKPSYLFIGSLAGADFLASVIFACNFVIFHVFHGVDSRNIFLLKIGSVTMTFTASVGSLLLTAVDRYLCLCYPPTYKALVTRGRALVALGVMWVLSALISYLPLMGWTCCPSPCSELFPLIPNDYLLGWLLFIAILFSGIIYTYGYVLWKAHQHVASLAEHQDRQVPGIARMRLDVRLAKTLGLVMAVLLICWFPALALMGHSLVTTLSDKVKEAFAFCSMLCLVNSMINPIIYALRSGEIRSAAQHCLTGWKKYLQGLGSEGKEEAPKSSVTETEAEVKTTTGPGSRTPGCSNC
Text: (§1) The receptorial binding technique allows indeed to establish if and with what affinity and specificity a determined compound binds itself to a particular receptor. To evaluate the affinity of a determined compound towards a particular receptor, a particular preparation of the tissue wherein the receptors are present is used and the tested compound is made to compete with another compound, treated so as to make it radioactive and of which the affinity for the receptor is known. […] The reading of the radioactivity present in the receptor-compound complex allows furthermore to precisely calculate the compound amount bound to the receptor. By this method it is therefore possible to rapidely identify the affinity of a new compound towards a specific receptor and thus to make predictions on its pharmacological activity. By repeating the same experimental scheme it is possible to evaluate the affinity of the compound towards other kinds of receptors and thus establish the specificity degree.
(§2) Food and water were available ad libitum.
(§3) The animals were sacrificed by cervical dislocation, the brain in toto (cerebellum excluded) and the spleen were rapidely dissected and maintained in ice.
(§4) The tissue was homogenized in 15 volumes (weight/volume) of TME buffer (50 mM Tris, 1 mM EDTA e 3 mM MgCl2, pH 7.4) by an Ultra-Turrax and centrifuged for 10 minutes at 1086×g in a centrifuge cooled at 4° C. The resulting supernatant was centrifuged at 45,000×g for 30 min at 4° C. by using a Beckman SW41 rotor and the final pellet was resuspended in 50 volumes of TME.
(§5) The obtained membranes (50-80 μg of proteins) were incubated in the presence of 1 nM di [^3H]-CP55,940 for 1 h at 30° C. in a final volume of 0.5 ml of TME buffer containing 5 mg/ml of bovine serum albumin (BSA). The non specific binding was measured in the presence of CP55,940 at the 1 μM concentration. […]
(§6) The radioactivity present in the filters was measured by a scintillator spectrophotometer (Tricarb 2100, Packard, Meridien, USA). […]

CB1 receptors [1] = target: T2, CB1 receptors (Rattus norvegicus, UniProt P20272); assay: Radioreceptor binding, [3H]-CP-55,940 displacement, rat brain membranes; design: from tissue; host or cells: whole animal (rat), central CB1 receptors of the hypothalamus; conditions: 1 nM [3H]-CP55,940
Text: as §1, §2, §3, §4, §5, §6

CB1 receptors [2] = target: T2, CB1 receptors; assay: Hypothermia test in vivo, compound alone (rectal temperature); design: from tissue; host or cells: whole animal (rat), central CB1 receptors of the hypothalamus; conditions: i.p., doses 0.1, 0.5, 1.0, 3.0, 6.0 mg/kg, versus physiological solution (38° C.)
Description: The test was carried out with the compound of the Example 3.1c. Aqueous samples were used wherein the compound of the Example 3.1c was dispersed in water with three drops of Tween 80. Following the above procedure, treatments were carried out with doses (mg compound/kg of body weight) respectively of 0.1; 0.5; 1.0; 3.0; 6.0.

T2 sequence (P20272 whole entry): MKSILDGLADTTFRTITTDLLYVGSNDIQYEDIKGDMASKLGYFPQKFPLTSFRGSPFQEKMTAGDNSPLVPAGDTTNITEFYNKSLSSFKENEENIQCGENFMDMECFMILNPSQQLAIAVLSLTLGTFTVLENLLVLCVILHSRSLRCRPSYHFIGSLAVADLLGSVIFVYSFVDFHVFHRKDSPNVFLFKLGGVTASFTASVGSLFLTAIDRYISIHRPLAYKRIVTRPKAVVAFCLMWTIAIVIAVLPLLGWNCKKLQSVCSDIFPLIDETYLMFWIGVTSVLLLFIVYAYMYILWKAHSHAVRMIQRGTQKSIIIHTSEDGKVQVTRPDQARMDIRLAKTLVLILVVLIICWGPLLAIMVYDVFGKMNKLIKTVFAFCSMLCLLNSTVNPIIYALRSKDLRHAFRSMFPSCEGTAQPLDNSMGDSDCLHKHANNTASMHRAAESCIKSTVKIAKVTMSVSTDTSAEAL

Row | SMILES | Ki (CB2 receptors) [nM] | Ki (CB1 receptors [1]) [nM] | effect of the compound as such on body temperature (CB1 receptors [2]) | melting point [°C]
1 | Cc1c(C(=O)NN2CCCCCC2)nn(-c2ccc(Cl)cc2Cl)c1-c1ccc(Cl)s1 [Example 3.1c, N-homopiperidinyl-5-(5-Chloro-thiophen-2-yl)-1-(2′,4′-dichloro-phenyl)-4-methyl-1H-pyrazol-3-carboxamide] | 270 ± 5 | 21 ± 1 | In none of the examined cases there was a reduction of the body temperature | –
2 | Cc1c(C(=O)Nc2ccccc2)nn(-c2ccc(Cl)cc2Cl)c1-c1ccc(Cl)s1 | – | – | – | 175 to 176
